Experiments:
Type in all cases: in vivo
[1] = test system: barnyardgrass (Echinochloa crus-galli); assay: Test A preemergence soil spray, visual injury rating 0-100; settings: 10 days, 0 = no effect, 100 = complete control
Summary of the method: (§1)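 Seeds sown in loam-sand blend got a preemergence directed soil spray, or emerged plants (2-10 cm, one- to two-leaf) got a postemergence spray, of compound in non-phytotoxic solvent with surfactant. After 10 days in greenhouse, injury rated visually versus untreated controls on a 0 (no effect) to 100 (complete control) scale.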

[2] = test system: blackgrass (Alopecurus myosuroides); assay: as above; settings: 10 days, 0 = no effect, 100 = complete control
Summary of the method: as §1

corn (Zea mays) [3] = assay: as above; settings: 10 days, 0 = no effect, 100 = complete control
Summary of the method: as §1

[4] = test system: green foxtail (Setaria viridis); assay: as above; settings: 10 days, 0 = no effect, 100 = complete control
Summary of the method: as §1

kochia (Bassia scoparia) [5] = assay: as above; settings: 10 days, 0 = no effect, 100 = complete control
Summary of the method: as §1

[6] = test system: oat, wild (wild oat, Avena fatua); assay: as above; settings: 10 days, 0 = no effect, 100 = complete control
Summary of the method: as §1

[7] = test system: palmer (palmer amaranth, palmer pigweed, Amaranthus palmeri); assay: as above; settings: 10 days, 0 = no effect, 100 = complete control
Summary of the method: as §1

[8] = test system: ragweed (common ragweed, Ambrosia artemisiifolia); assay: as above; settings: 10 days, 0 = no effect, 100 = complete control
Summary of the method: as §1

[9] = test system: ryegrass, Italian (italian ryegrass, Lolium multiflorum); assay: as above; settings: 10 days, 0 = no effect, 100 = complete control
Summary of the method: as §1

soybean (Glycine max) [10] = assay: as above; settings: 10 days, 0 = no effect, 100 = complete control
Summary of the method: as §1

[11] = test system: wheat (Triticum aestivum); assay: as above; settings: 10 days, 0 = no effect, 100 = complete control
Summary of the method: as §1

[12] = test system: barnyardgrass (Echinochloa crus-galli); assay: Test A postemergence application, visual injury rating 0-100; settings: 10 days
Summary of the method: as §1

[13] = test system: blackgrass (Alopecurus myosuroides); assay: as above; settings: 10 days
Summary of the method: as §1

corn (Zea mays) [14] = assay: as above; settings: 10 days
Summary of the method: as §1

[15] = test system: galium (catchweed bedstraw, Galium aparine); assay: as above; settings: 10 days
Summary of the method: as §1

[16] = test system: green foxtail (Setaria viridis); assay: as above; settings: 10 days
Summary of the method: as §1

[17] = test system: horseweed (Erigeron canadensis); assay: as above; settings: 10 days
Summary of the method: as §1

kochia (Bassia scoparia) [18] = assay: as above; settings: 10 days
Summary of the method: as §1

[19] = test system: oat, wild (wild oat, Avena fatua); assay: as above; settings: 10 days
Summary of the method: as §1

[20] = test system: palmer (palmer amaranth, palmer pigweed, Amaranthus palmeri); assay: as above; settings: 10 days
Summary of the method: as §1

[21] = test system: ragweed (common ragweed, Ambrosia artemisiifolia); assay: as above; settings: 10 days
Summary of the method: as §1

[22] = test system: ryegrass, Italian (italian ryegrass, Lolium multiflorum); assay: as above; settings: 10 days
Summary of the method: as §1

soybean (Glycine max) [23] = assay: as above; settings: 10 days
Summary of the method: as §1

[24] = test system: wheat (Triticum aestivum); assay: as above; settings: 10 days
Summary of the method: as §1

[25] = test system: barnyardgrass (Echinochloa crusgalli); assay: Test B flooded paddy test, visual plant response rating 0-100; settings: 250 g ai/ha, Flood, applied to paddy water, evaluated after 13 days
Summary of the method: (§2)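 Paddy-water application: test compounds went directly into water flooded 3 cm above the soil surface, with plants at 2 leaves. After a 13-day greenhouse period, responses were judged by eye relative to controls; a dash marks an untested entry.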

[26] = test system: ducksalad (Heteranthera limosa); assay: as above; settings: 250 g ai/ha, Flood, applied to paddy water, evaluated after 13 days
Summary of the method: as §2

rice (Oryza sativa) = assay: as above; settings: 250 g ai/ha, Flood, applied to paddy water, evaluated after 13 days
Summary of the method: as §2

[27] = test system: sedge, umbrella (small-flower umbrella sedge, Cyperus difformis); assay: as above; settings: 250 g ai/ha, Flood, applied to paddy water, evaluated after 13 days
Summary of the method: as §2

[28] = 31 g ai/ha, postemergence, 0 = no effect, 100 = complete control
[29] = Postemergence, 125 g ai/ha, 0 is no effect, 100 is complete control

COC(=O)C1=CCC(NC(=O)C2(C)CN(c3cc(F)cc(F)c3)C(=O)O2)C1 (stereo not shown) [Compound 21]
Barnyardgrass plant response rating (0-100) ([1]; 31 g ai/ha): 50 | Barnyardgrass plant response rating (0 to 100 scale) ([1]; 125 g ai/ha): 100 | Blackgrass plant response rating (0-100) ([2]; 31 g ai/ha): 0 | Blackgrass plant response rating (0 to 100 scale) ([2]; 125 g ai/ha): 90 | Corn plant response rating (0-100) (corn (Zea mays) [3]; 31 g ai/ha): 60 | Corn plant response rating (0 to 100 scale) (corn (Zea mays) [3]; 125 g ai/ha): 90 | Foxtail, Green plant response rating (0-100) ([4]; 31 g ai/ha): 90 | Foxtail, Green plant response rating (0 to 100 scale) ([4]; 125 g ai/ha): 100 | Kochia plant response rating (0-100) (kochia (Bassia scoparia) [5]; 31 g ai/ha): 0 | Kochia plant response rating (0 to 100 scale) (kochia (Bassia scoparia) [5]; 125 g ai/ha): 90 | Oat, Wild plant response rating (0-100) ([6]; 31 g ai/ha): 60 | Oat, Wild plant response rating (0 to 100 scale) ([6]; 125 g ai/ha): 80 | Amaranth, Palmer plant response rating (0-100) ([7]; 31 g ai/ha): 40 | Amaranth, Palmer plant response rating (0 to 100 scale) ([7]; 125 g ai/ha): 100 | Ragweed plant response rating (0-100) ([8]; 31 g ai/ha): 30 | Ragweed plant response rating (0 to 100 scale) ([8]; 125 g ai/ha): 30 | Ryegrass, Italian plant response rating (0-100) ([9]; 31 g ai/ha): 50 | Ryegrass, Italian plant response rating (0 to 100 scale) ([9]; 125 g ai/ha): 90 | Soybean plant response rating (0-100) (soybean (Glycine max) [10]; 31 g ai/ha): 50 | Soybean plant response rating (0 to 100 scale) (soybean (Glycine max) [10]; 125 g ai/ha): 80 | Wheat plant response rating (0-100) ([11]; 31 g ai/ha): 80 | Wheat plant response rating (0 to 100 scale) ([11]; 125 g ai/ha): 90 | Barnyardgrass plant response rating (0-100) [12, 28]: 100 | Barnyardgrass plant response rating (0 to 100 scale) [12, 29]: 100 | Blackgrass plant response rating (0-100) [13, 28]: 90 | Blackgrass plant response rating (0 to 100 scale) [13, 29]: 100 | Corn plant response rating (0-100) (corn (Zea mays) [14]; [28]): 100 | Corn plant response rating (0 to 100 scale) (corn (Zea mays) [14]; [29]): 100 | Galium plant response rating (0-100) [15, 28]: 80 | Galium plant response rating (0 to 100 scale) [15, 29]: 80 | Foxtail, Green plant response rating (0-100) [16, 28]: 90 | Foxtail, Green plant response rating (0 to 100 scale) [16, 29]: 90 | Horseweed plant response rating (0-100) [17, 28]: 20 | Horseweed plant response rating (0 to 100 scale) [17, 29]: 70 | Kochia plant response rating (0-100) (kochia (Bassia scoparia) [18]; [28]): 80 | Kochia plant response rating (0 to 100 scale) (kochia (Bassia scoparia) [18]; [29]): 80 | Oat, Wild plant response rating (0-100) [19, 28]: 90 | Oat, Wild plant response rating (0 to 100 scale) [19, 29]: 100 | Amaranth, Palmer plant response rating (0-100) [20, 28]: 60 | Amaranth, Palmer / Pigweed, Palmer plant response rating (0 to 100 scale) [20, 29]: 90 | Ragweed plant response rating (0-100) [21, 28]: 40 | Ragweed plant response rating (0 to 100 scale) [21, 29]: 70 | Ryegrass, Italian plant response rating (0-100) [22, 28]: 90 | Ryegrass, Italian plant response rating (0 to 100 scale) [22, 29]: 40 | Soybean plant response rating (0-100) (soybean (Glycine max) [23]; [28]): 80 | Soybean plant response rating (0 to 100 scale) (soybean (Glycine max) [23]; [29]): 90 | Wheat plant response rating (0-100) [24, 28]: 90 | Wheat plant response rating (0 to 100 scale) [24, 29]: 90 | Plant response rating, Barnyardgrass (0 to 100 scale, 0 is no effect and 100 is complete control) [25]: 90 | Plant response rating, Ducksalad (0 to 100 scale, 0 is no effect and 100 is complete control) [26]: 90 | Plant response rating, Rice (0 to 100 scale, 0 is no effect and 100 is complete control) (rice (Oryza sativa)): 90 | Plant response rating, Sedge, Umbrella (0 to 100 scale, 0 is no effect and 100 is complete control) [27]: 95

From US20260285850A1, “SUBSTITUTED OXAZOLIDINONES AND IMIDAZOLINONES AS HERBICIDES” (FMC CORPORATION, priority 2023, published 2026)
